pIC50: −log10 of the molar value. Active and inactive are the calls of the source. The rule behind the calls is not given here.
Assays:
[1] = biological target: T1, Protein mono-ADP-ribosyltransferase PARP3 (Homo sapiens, UniProt Q9Y6F1); assay: Inhibition of PARP3 (unknown origin)
T1 sequence (Q9Y6F1 whole entry): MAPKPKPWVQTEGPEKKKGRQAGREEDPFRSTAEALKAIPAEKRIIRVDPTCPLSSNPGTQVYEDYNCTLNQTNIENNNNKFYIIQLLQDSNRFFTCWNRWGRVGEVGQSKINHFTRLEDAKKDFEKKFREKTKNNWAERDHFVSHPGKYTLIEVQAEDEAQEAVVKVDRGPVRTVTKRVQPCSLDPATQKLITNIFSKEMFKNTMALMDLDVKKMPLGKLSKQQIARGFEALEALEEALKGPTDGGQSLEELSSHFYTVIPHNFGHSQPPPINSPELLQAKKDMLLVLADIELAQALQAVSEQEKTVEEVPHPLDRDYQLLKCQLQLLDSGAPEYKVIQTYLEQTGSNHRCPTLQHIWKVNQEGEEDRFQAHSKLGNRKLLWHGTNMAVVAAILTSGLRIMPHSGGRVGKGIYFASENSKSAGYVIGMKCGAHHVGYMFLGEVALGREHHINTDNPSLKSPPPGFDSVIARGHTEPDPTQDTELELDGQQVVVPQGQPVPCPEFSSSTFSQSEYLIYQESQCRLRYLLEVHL

[2] = biological target: T2, Poly [ADP-ribose] polymerase tankyrase-2 (Homo sapiens, UniProt Q9H2K2); assay: Inhibition of PARP5b (unknown origin)
T2 sequence (Q9H2K2 whole entry): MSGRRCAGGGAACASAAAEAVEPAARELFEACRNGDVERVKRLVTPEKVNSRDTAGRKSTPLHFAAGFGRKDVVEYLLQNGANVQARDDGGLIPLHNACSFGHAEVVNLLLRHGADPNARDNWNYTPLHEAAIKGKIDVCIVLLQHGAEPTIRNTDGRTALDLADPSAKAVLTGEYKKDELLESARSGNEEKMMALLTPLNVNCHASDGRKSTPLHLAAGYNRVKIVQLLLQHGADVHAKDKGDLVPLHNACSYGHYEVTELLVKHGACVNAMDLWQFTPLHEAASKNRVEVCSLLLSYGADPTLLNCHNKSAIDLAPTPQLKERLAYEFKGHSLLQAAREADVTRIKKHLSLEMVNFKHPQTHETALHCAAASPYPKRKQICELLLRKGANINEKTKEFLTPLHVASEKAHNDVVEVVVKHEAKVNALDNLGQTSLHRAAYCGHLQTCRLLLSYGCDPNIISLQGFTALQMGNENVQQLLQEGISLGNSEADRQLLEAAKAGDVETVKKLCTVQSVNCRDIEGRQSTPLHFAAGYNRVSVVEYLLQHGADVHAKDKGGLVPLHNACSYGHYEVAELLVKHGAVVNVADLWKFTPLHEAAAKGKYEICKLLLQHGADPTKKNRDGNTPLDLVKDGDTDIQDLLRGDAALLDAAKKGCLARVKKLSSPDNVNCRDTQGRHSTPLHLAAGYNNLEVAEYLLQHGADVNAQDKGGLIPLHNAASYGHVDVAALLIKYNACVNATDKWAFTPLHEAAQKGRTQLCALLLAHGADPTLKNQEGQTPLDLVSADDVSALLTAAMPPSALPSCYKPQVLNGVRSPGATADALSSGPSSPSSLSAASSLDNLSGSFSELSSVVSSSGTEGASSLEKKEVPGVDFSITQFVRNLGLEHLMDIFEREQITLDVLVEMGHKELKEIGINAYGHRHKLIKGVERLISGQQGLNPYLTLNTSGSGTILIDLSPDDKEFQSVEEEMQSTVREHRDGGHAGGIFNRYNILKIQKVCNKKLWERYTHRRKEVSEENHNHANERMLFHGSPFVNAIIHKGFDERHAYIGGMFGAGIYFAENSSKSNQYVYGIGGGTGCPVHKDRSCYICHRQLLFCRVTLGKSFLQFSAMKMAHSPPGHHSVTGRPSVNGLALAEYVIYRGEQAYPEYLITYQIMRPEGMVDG

[3] = Volume of distribution at steady state in Sprague-Dawley rat at 1 mg/kg, iv by LC-MS/MS analysis; format: ADME, organism-based; details: in vivo, read-out: Vdss
MDA-MB-231 = assay: Induction of DNA damage in human MDA-MB-231 cells assessed as increase in tail intensity at 2 uM incubated for 3 days by florescence microscopic analysis; format: functional, cell-based; details: time 3.0 day
[4] = Toxicity in BALB/c mouse xenografted with human MDA-MB-231 cells assessed as liver damage at 20 to 40 mg/kg, ip administered for 21 days by H and E staining based analysis; format: organism-based; details: in vivo, 504 h, dose 20-40 mg/kg, time 21 day
MCF-10A = assay: Effect on PARP1 expression in human MCF-10A cells by immunoblotting analysis; format: functional, cell-based
[5] = biological target: T3, Protein mono-ADP-ribosyltransferase PARP10 (Homo sapiens, UniProt Q53GL7); assay: Inhibition of PARP10 (unknown origin)
T3 sequence (Q53GL7 whole entry): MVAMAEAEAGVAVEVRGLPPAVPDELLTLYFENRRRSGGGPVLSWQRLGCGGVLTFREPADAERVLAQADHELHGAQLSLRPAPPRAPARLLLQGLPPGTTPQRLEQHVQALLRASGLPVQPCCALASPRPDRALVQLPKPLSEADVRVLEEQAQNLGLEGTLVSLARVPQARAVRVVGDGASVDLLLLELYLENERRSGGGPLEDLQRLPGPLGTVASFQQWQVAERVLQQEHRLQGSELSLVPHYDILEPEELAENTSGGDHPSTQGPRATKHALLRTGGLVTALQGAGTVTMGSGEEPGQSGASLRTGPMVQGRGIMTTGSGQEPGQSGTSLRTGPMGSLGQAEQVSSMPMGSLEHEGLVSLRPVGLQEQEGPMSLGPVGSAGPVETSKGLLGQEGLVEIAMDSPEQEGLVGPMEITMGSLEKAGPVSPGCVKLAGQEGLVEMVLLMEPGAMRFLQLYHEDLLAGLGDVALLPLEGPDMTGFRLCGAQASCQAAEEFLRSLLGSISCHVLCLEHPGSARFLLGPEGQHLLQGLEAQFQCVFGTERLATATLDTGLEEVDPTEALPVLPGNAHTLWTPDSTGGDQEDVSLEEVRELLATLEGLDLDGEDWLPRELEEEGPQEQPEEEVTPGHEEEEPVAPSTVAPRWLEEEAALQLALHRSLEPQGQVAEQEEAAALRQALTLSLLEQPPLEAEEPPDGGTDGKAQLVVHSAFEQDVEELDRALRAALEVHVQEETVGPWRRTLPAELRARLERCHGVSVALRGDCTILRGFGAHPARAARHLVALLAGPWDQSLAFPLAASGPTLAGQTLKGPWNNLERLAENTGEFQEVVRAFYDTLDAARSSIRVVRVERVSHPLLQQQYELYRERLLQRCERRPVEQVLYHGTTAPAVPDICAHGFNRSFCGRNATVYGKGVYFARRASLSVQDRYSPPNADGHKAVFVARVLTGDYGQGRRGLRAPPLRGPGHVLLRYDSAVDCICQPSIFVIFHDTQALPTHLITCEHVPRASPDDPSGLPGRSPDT

COc1ccc(Cl)cc1-c1cc(C)ncc1C(=O)Nc1nnc(OCC2CCN(C(=O)c3cc(Cc4n[nH]c(=O)c5ccccc45)ccc3F)CC2)s1
pIC50 [1]: 7.29
pIC50 [2]: 6.81
Vd [3]: 1.12 L/kg
Activity (MDA-MB-231): Active
Activity [4]: Non-Toxic
Activity (MCF-10A): Active
pIC50 [5]: 5.96
